The subject of data set [1] is dyspnotic breathing in histamine. As to the kind of experiment: Duration of bronchodilating activity in conscious guinea pigs challenged with aerosolized histamine after tracheal instillation or inhalation. Type of data set: in vivo. Particulars: for delay (in minutes) in the appearance of dyspnotic breathing in histamine 0.5 h after the administration / delay (in minutes) in the appearance of dyspnotic breathing in histamine 6 h after the administration: given intratracheally; for initial potency compared with salmeterol / initial potency compared with terbutaline: conscious guinea pigs, histamine challenge. The procedure:
Concious guinea pigs were used in the study. The compounds according to Examples 1 and 2, salmeterol and terbutaline, were given by inhalation or by tracheal instillation whereafter the animals were challenged in a histamine mist after different time intervals.
The guinea pigs were placed in plastic boxes and the test compounds delivered by continuous flow nebulization during 15 minutes.
The animals were lightly anaesthetized by inhalation of Efrane. The test compounds were instilled by use of a thin cannula to the tracheal bifurcation. Controlled animals were instilled with saline.
After the administrations, according to one of the mentioned routes, the animals were placed in transparent plastic cages and challenged with aerosolized histamine. The mist was generated in a nebulizer from a solution containing 0.5-1.0x10⁻³ mol/l of histamine in 3% glycerol. This concentration produced a defined dyspnotic breathing, appearing in control animals within 2-3 minutes. This phase was usally indicated by observation, sometimes also a "blinded trial" or recorded by use of a strain-gauge belt (see 0.A.T. Olsson in Acta Allergologica 26, 438, 1971). An increasing amount of spasmolytic drug gives then rise to a dose-dependent prolongation of the ability of the animals to resist this histamine spasm. As soon as a dyspnotic breathing was established the guinea pigs were removed from the histamine milieu since the same animals have to be exposed to histamine not only after 30 minutes but also at 3, 6 and 9 hours after drug administration.
In some of the experiments the animals were challenged with methacholine instead of histamine to exclude the eventuality of an antihistaminic effect of the drugs tested.
The amounts instilled produce about equieffective protection (6 to 7 minutes) against a histamine provocation 30 minutes after the administration of the test compound. The degree of protection 6 hours after the instillation of the test compound indicates the duration of the bronchospasmolytic activity.

The conditions of data set [2]: inhalation therapy; cited from earlier work.
The subject of data set [3] is histamine-elicited bronchospasm. As to the kind of experiment: Bronchospasmolytic effect (reduction of intratracheal pressure, ITP) in anaesthetized guinea pigs. Conditions: for dose-related inhibition of the histamine-elicited bronchospasm: after injection as well as after inhalation; for reduction of ITP: 3 minutes before histamine infusion. Type of data set: in vivo. The procedure: (§1) Guinea pigs of either sex were used in the study. The anaesthesia was produced by intravenous pentobarbital, The trachea was cannulated and the animals articificially ventilated by a constant volume respiratory. The intratracheal pressure (ITP) was measured by a pressure transducer. An increase in ITP, above the basic pressure level, indicating a respiratory spasm, was elicited by histamine infused in a jugular vein during 20 sec. every 7 minutes and in amounts producing a peak-ITP in the range 4-6 kPa. To trace cardiovascular effects from used drugs the blood pressure was recorded from a carotide artery via a pressure transducer. The pulse wave, indicating the rate, was triggering a tachograph recording the heart frequency.
(§2) The test compounds were injected 3 minutes before a histamine infusion and the decrease in percent of the intratracheal pressure (ITP) was taken as a measure of the bronchospasmolytic activity. The influence on heart-rate was evaluated after cumultative injections; a new injection was given when the preceding one had produced a steady state in the rate.
(§3) The test compounds were nebulized and the mist produced was led to the animal through the respirator and tracheal cannula. Inhalation continued for 15 mintues for each concentration of the test compounds. The bronchodilating effect […] was calculated as percent reduction in ITP. The effect on heart-rate was determined after a cumultative increase in the concentrations of the nebulized solutions. Effect measurements were made at steady state, and three different concentrations were used.

Data set [4] has as its system heart-rate. As to the kind of experiment: Heart-stimulating effect (heart-rate) in anaesthetized guinea pigs. Format: in vivo. As for the experimental part: as §1, §2, §3

Regarding `COc1ccc(CNc2cc(C(O)CNC(C)Cc3ccc4c(c3)OCO4)ccc2O)cc1` [(R,R+S,R)], in data set [1] (1x10⁻⁷ mol/kg), the “delay (in minutes) in the appearance of dyspnotic breathing in histamine 0.5 h after the administration” value is 7 min and the “delay (in minutes) in the appearance of dyspnotic breathing in histamine 6 h after the administration” value was 3 min.

Take `Cc1ccc(C(=O)Oc2ccc(C(O)CNC(C)(C)C)cc2OC(=O)c2ccc(C)cc2)cc1` (centres unmarked) [bitolterol]: the duration of activity in data set [2] is 4 to 6 h.

`OCc1cc(C(O)CNCCCCCCOCCCCc2ccccc2)ccc1O` (centres unmarked) [salmeterol]: the “dose-related inhibition of the histamine-elicited bronchospasm” value (shortened to “dose-related inhibition”) in data set [3] is given as “inhibition of the histamine-elicited bronchospasm”. Also, in data set [3] (injection of 5x10⁻¹⁰ mol/kg), the “reduction of ITP” value is “about 50 per cent”. Moreover, the “potency compared with the other two drugs (compound of Example 2, terbutaline)” value in data set [3] (when inhaled) was “about five times”; in data set [3] (when injected), “at least ten times higher”. In addition, the “increase of the heart-rate” value in data set [4] (guinea pig, in vivo) was 15 beats/min; in data set [4] (guinea pig, in vivo, iv), “about 30 beats/min”. The “duration of activity compared with terbutaline” value in data set [1] (calculated from an equipotent level) was “prolonged”.

In the case of `COc1ccc(CNc2cc([C@@H](O)CN[C@H](C)Cc3ccc4c(c3)OCO4)ccc2O)cc1` [(R,R)], in data set [1] (5x10⁻⁸ mol/kg), the “delay (in minutes) in the appearance of dyspnotic breathing in histamine 0.5 h after the administration” value stood at 7 min and the “delay (in minutes) in the appearance of dyspnotic breathing in histamine 6 h after the administration” value is 3 min.

As to `CC(C)(C)NCC(O)c1cc(O)cc(O)c1` (centres unmarked) [Terbutaline, terbutaline], the duration of activity in data set [2] was 4 to 6 h. In addition, the “dose-related inhibition” value in data set [3] was “inhibition of the histamine-elicited bronchospasm”. In addition, the “reduction of ITP” value in data set [3] (injection of 1x10⁻⁸ mol/kg) is on record as “about 50 per cent”. The “effect on heart-rate relative to salmeterol and the compounds of the invention” value in data set [4] (guinea pig, in vivo) is reported as “lies in between”. In addition, the “increase of the heart-rate” value in data set [4] (guinea pig, in vivo, iv) was “about 30 beats/min”. Further, in data set [1] (1x10⁻⁷ mol/kg), the “delay (in minutes) in the appearance of dyspnotic breathing in histamine 0.5 h after the administration” value was found to be 7 min and the “delay (in minutes) in the appearance of dyspnotic breathing in histamine 6 h after the administration” value was determined as 2 min.

Regarding `COc1ccc(CNc2cc([C@@H](O)CN[C@@H](C)Cc3ccc4c(c3)OCO4)ccc2O)cc1` (racemic) [(R,S+S,R)], the “dose-related inhibition” value in data set [3] is given as “inhibition of the histamine-elicited bronchospasm”. Also, the “reduction of ITP” value in data set [3] (injection of 5x10⁻⁹ mol/kg) is on record as “about 50 per cent”. For the same compound, the “effect on heart rate compared with salmeterol” value in data set [4] (after inhalation) was “more reduced effect on heart rate”. The “relationship between the effect on the respiratory system and heart, compared with salmeterol” value in data set [4] (when the drugs are injected) is “the same”. Besides, in data set [1], the “initial potency compared with salmeterol” value is recorded as “approximately ten times less than for salmeterol” and the “initial potency compared with terbutaline” value is listed as “about the same as for terbutaline”. In addition, in data set [1] (1x10⁻⁸ mol/kg), the “delay (in minutes) in the appearance of dyspnotic breathing in histamine 0.5 h after the administration” value was 7 min and the “delay (in minutes) in the appearance of dyspnotic breathing in histamine 6 h after the administration” value worked out at 6 min.

For `CC(C)(C)NCC(O)c1ccc(O)c(CO)c1` (centres unmarked) [salbutamol], the duration of activity in data set [2] is 4 to 6 h.

With `COc1ccc(CNc2cc([C@@H](O)CN[C@@H](C)Cc3ccc4c(c3)OCO4)ccc2O)cc1` [(R,S), 1-(R)-(4-hydroxy-3-(p-methoxybenzylamino)phenyl)-2-[(1(S)-methyl-2-(3,4-methylenedioxyphenyl)ethyl)amino]ethanol], in data set [1], the “initial potency compared with salmeterol” value was “approximately ten times less than for salmeterol” and the “initial potency compared with terbutaline” value is given as “about the same as for terbutaline”. For the same compound, in data set [1] (5x10⁻⁹ mol/kg), the “delay (in minutes) in the appearance of dyspnotic breathing in histamine 0.5 h after the administration” value worked out at 6 min and the “delay (in minutes) in the appearance of dyspnotic breathing in histamine 6 h after the administration” value amounted to 5 min.

On to `CC(Cc1ccc(O)cc1)NCC(O)c1cc(O)cc(O)c1` (centres unmarked) [fenoterol], for which the duration of activity in data set [2] was 4 to 6 h.

Regarding `COc1ccc(CNc2cc(C(O)CNC(C)Cc3ccc4c(c3)OCO4)ccc2O)cc1` [(R,S+S,S)], in data set [1] (1x10⁻⁸ mol/kg), the “delay (in minutes) in the appearance of dyspnotic breathing in histamine 0.5 h after the administration” value was 6 min and the “delay (in minutes) in the appearance of dyspnotic breathing in histamine 6 h after the administration” value came to 5 min.
